The text below walks through data of US20090232899A1, “Mucoadhesive nanocomposite delivery system” (priority 2004, published 2009).

For series [1] the following is noted: low pH, simulated gastric fluid; cited from earlier work.
Series [2] deals with NIH3T3 fibroblast cells.
Method: The NIH3T3 fibroblast cells were used for cytotoxicity testing by methyl thiazol-2-YL-2,5-diphenyl tetrazolium bromide (MTT) staining. After seven days, the cell-containing samples were rinsed with serum-free media to remove the unattached cells and were transferred to a new plate. Then, 250 μl MTT solution was added to each sample and incubated for 4 hours to induce MTT formazan formation. Purple formazan was extracted with dimethyl sulfoxide (DMSO), and was used for optical density (OD) measurement with a Thermomax ELISA reader at a wavelength of 540 nm with DMSO as a blank.

With `Cc1ncc([N+](=O)[O-])n1CCO` [Metronidazole], the “Stability under the testing conditions, compared with amoxicillin” value in series [1] was “greater stability”. As to Chitosan, in series [2], the “Viability of fibroblasts, ratio (%) of absorbance of sample group to group without treatment (NT)” value is given as 90 ± 9%.
